{
  "source": "the NIST ThermoML archive (doi:10.1016/j.jct.2012.07.006)",
  "key": {"[1]": {"settings": "298.15 K; 101.33 kPa; Liquid; Pycnometric method"}, "[2]": {"assay": "excess molar enthalpy (molar enthalpy of mixing); xn = mol fraction of the nth substance listed", "settings": "298.15 K, 101 kPa, Liquid, Calvet calorimetry"}},
  "note": "± gives the expanded uncertainty stated by the source.",
  "data": [
    {"compound": "CCCCCCCCCCCCCC", "note": "[tetradecane]", "values": [
      {"measurement": "mass density", "setting": "[1]", "result": "759.19 ± 20", "unit": "kg/m3"}
    ]},
    {"compound": "CCCCCCCCCC", "note": "[decane]", "values": [
      {"measurement": "mass density", "setting": "[1]", "result": "726.47 ± 20", "unit": "kg/m3"}
    ]},
    {"compound": "CNc1ccccc1", "note": "[N-methylaniline] + CCCCCCCCCC", "values": [
      {"measurement": "excess molar enthalpy", "setting": "[2]; x1 = 0.1015", "result": "0.881 ± 0.019", "unit": "kJ/mol"},
      {"measurement": "excess molar enthalpy", "setting": "[2]; x1 = 0.201", "result": "1.42 ± 0.03", "unit": "kJ/mol"},
      {"measurement": "excess molar enthalpy", "setting": "[2]; x1 = 0.2993", "result": "1.73 ± 0.037", "unit": "kJ/mol"},
      {"measurement": "excess molar enthalpy", "setting": "[2]; x1 = 0.3848", "result": "1.88 ± 0.04", "unit": "kJ/mol"},
      {"measurement": "excess molar enthalpy", "setting": "[2]; x1 = 0.487", "result": "1.92 ± 0.041", "unit": "kJ/mol"},
      {"measurement": "excess molar enthalpy", "setting": "[2]; x1 = 0.5963", "result": "1.84 ± 0.039", "unit": "kJ/mol"},
      {"measurement": "excess molar enthalpy", "setting": "[2]; x1 = 0.6951", "result": "1.65 ± 0.035", "unit": "kJ/mol"},
      {"measurement": "excess molar enthalpy", "setting": "[2]; x1 = 0.7934", "result": "1.32 ± 0.028", "unit": "kJ/mol"},
      {"measurement": "excess molar enthalpy", "setting": "[2]; x1 = 0.8899", "result": "0.857 ± 0.018", "unit": "kJ/mol"}
    ]},
    {"compound": "CNc1ccccc1", "note": "[N-methylaniline] + C1CCCCC1", "values": [
      {"measurement": "excess molar enthalpy", "setting": "[2]; x1 = 0.0978", "result": "0.826 ± 0.018", "unit": "kJ/mol"},
      {"measurement": "excess molar enthalpy", "setting": "[2]; x1 = 0.1987", "result": "1.3 ± 0.028", "unit": "kJ/mol"},
      {"measurement": "excess molar enthalpy", "setting": "[2]; x1 = 0.2934", "result": "1.52 ± 0.033", "unit": "kJ/mol"},
      {"measurement": "excess molar enthalpy", "setting": "[2]; x1 = 0.4002", "result": "1.61 ± 0.034", "unit": "kJ/mol"},
      {"measurement": "excess molar enthalpy", "setting": "[2]; x1 = 0.4937", "result": "1.63 ± 0.035", "unit": "kJ/mol"},
      {"measurement": "excess molar enthalpy", "setting": "[2]; x1 = 0.5934", "result": "1.54 ± 0.033", "unit": "kJ/mol"},
      {"measurement": "excess molar enthalpy", "setting": "[2]; x1 = 0.6935", "result": "1.31 ± 0.028", "unit": "kJ/mol"},
      {"measurement": "excess molar enthalpy", "setting": "[2]; x1 = 0.7953", "result": "0.972 ± 0.021", "unit": "kJ/mol"},
      {"measurement": "excess molar enthalpy", "setting": "[2]; x1 = 0.8938", "result": "0.568 ± 0.012", "unit": "kJ/mol"}
    ]},
    {"compound": "CNc1ccccc1", "note": "[N-methylaniline]", "values": [
      {"measurement": "mass density", "setting": "[1]", "result": "982.237 ± 20", "unit": "kg/m3"}
    ]},
    {"compound": "CNc1ccccc1", "note": "[N-methylaniline] + Cc1ccccc1", "values": [
      {"measurement": "excess molar enthalpy", "setting": "[2]; x1 = 0.0991", "result": "0.224 ± 0.005", "unit": "kJ/mol"},
      {"measurement": "excess molar enthalpy", "setting": "[2]; x1 = 0.1956", "result": "0.368 ± 0.008", "unit": "kJ/mol"},
      {"measurement": "excess molar enthalpy", "setting": "[2]; x1 = 0.2952", "result": "0.459 ± 0.01", "unit": "kJ/mol"},
      {"measurement": "excess molar enthalpy", "setting": "[2]; x1 = 0.399", "result": "0.5 ± 0.011", "unit": "kJ/mol"},
      {"measurement": "excess molar enthalpy", "setting": "[2]; x1 = 0.4973", "result": "0.497 ± 0.011", "unit": "kJ/mol"},
      {"measurement": "excess molar enthalpy", "setting": "[2]; x1 = 0.5922", "result": "0.465 ± 0.01", "unit": "kJ/mol"},
      {"measurement": "excess molar enthalpy", "setting": "[2]; x1 = 0.6882", "result": "0.387 ± 0.009", "unit": "kJ/mol"},
      {"measurement": "excess molar enthalpy", "setting": "[2]; x1 = 0.7892", "result": "0.287 ± 0.006", "unit": "kJ/mol"},
      {"measurement": "excess molar enthalpy", "setting": "[2]; x1 = 0.8851", "result": "0.166 ± 0.004", "unit": "kJ/mol"}
    ]},
    {"compound": "CNc1ccccc1", "note": "[N-methylaniline] + CCCCCCCC", "values": [
      {"measurement": "excess molar enthalpy", "setting": "[2]; x1 = 0.1045", "result": "0.853 ± 0.018", "unit": "kJ/mol"},
      {"measurement": "excess molar enthalpy", "setting": "[2]; x1 = 0.2002", "result": "1.35 ± 0.029", "unit": "kJ/mol"},
      {"measurement": "excess molar enthalpy", "setting": "[2]; x1 = 0.303", "result": "1.62 ± 0.035", "unit": "kJ/mol"},
      {"measurement": "excess molar enthalpy", "setting": "[2]; x1 = 0.4117", "result": "1.75 ± 0.037", "unit": "kJ/mol"},
      {"measurement": "excess molar enthalpy", "setting": "[2]; x1 = 0.4956", "result": "1.77 ± 0.038", "unit": "kJ/mol"},
      {"measurement": "excess molar enthalpy", "setting": "[2]; x1 = 0.5965", "result": "1.69 ± 0.036", "unit": "kJ/mol"},
      {"measurement": "excess molar enthalpy", "setting": "[2]; x1 = 0.6933", "result": "1.51 ± 0.032", "unit": "kJ/mol"},
      {"measurement": "excess molar enthalpy", "setting": "[2]; x1 = 0.791", "result": "1.19 ± 0.026", "unit": "kJ/mol"},
      {"measurement": "excess molar enthalpy", "setting": "[2]; x1 = 0.889", "result": "0.769 ± 0.017", "unit": "kJ/mol"}
    ]},
    {"compound": "CCCCCCCC", "note": "[octane]", "values": [
      {"measurement": "mass density", "setting": "[1]", "result": "698.75 ± 20", "unit": "kg/m3"}
    ]},
    {"compound": "CCCCCCC", "note": "[heptane]", "values": [
      {"measurement": "mass density", "setting": "[1]", "result": "679.71 ± 20", "unit": "kg/m3"}
    ]},
    {"compound": "Cc1ccccc1", "note": "[toluene]", "values": [
      {"measurement": "mass density", "setting": "[1]", "result": "862.346 ± 24", "unit": "kg/m3"}
    ]},
    {"compound": "CNc1ccccc1", "note": "[N-methylaniline] + CCCCCCC", "values": [
      {"measurement": "excess molar enthalpy", "setting": "[2]; x1 = 0.102", "result": "0.818 ± 0.018", "unit": "kJ/mol"},
      {"measurement": "excess molar enthalpy", "setting": "[2]; x1 = 0.1982", "result": "1.29 ± 0.028", "unit": "kJ/mol"},
      {"measurement": "excess molar enthalpy", "setting": "[2]; x1 = 0.2968", "result": "1.54 ± 0.033", "unit": "kJ/mol"},
      {"measurement": "excess molar enthalpy", "setting": "[2]; x1 = 0.3935", "result": "1.65 ± 0.035", "unit": "kJ/mol"},
      {"measurement": "excess molar enthalpy", "setting": "[2]; x1 = 0.4983", "result": "1.68 ± 0.036", "unit": "kJ/mol"},
      {"measurement": "excess molar enthalpy", "setting": "[2]; x1 = 0.5982", "result": "1.6 ± 0.034", "unit": "kJ/mol"},
      {"measurement": "excess molar enthalpy", "setting": "[2]; x1 = 0.6934", "result": "1.44 ± 0.031", "unit": "kJ/mol"},
      {"measurement": "excess molar enthalpy", "setting": "[2]; x1 = 0.7941", "result": "1.13 ± 0.024", "unit": "kJ/mol"},
      {"measurement": "excess molar enthalpy", "setting": "[2]; x1 = 0.8939", "result": "0.679 ± 0.015", "unit": "kJ/mol"}
    ]},
    {"compound": "C1CCCCC1", "note": "[cyclohexane]", "values": [
      {"measurement": "mass density", "setting": "[1]", "result": "773.96 ± 20", "unit": "kg/m3"}
    ]},
    {"compound": "CCCCCCCCCCCCCCCC", "note": "[hexadecane]", "values": [
      {"measurement": "mass density", "setting": "[1]", "result": "769.91 ± 20", "unit": "kg/m3"}
    ]}
  ]
}
